Source: patent US6534514B1, “Kappa opioid receptor antagonists” (Regents of the University of Minnesota, priority 1993, dated 2003)
Read-outs that look alike come from different tables or passages of the source.

Tests used:
[1] = target: T1, kappa opioid receptors (Cavia porcellus, UniProt P41144); assay: Guinea pig ileal longitudinal muscle (GPI), antagonism of ethylketazocine (EK); assay type: cell-based; details: for Selectivity κ/μ: GPI EK versus GPI morphine; for Selectivity κ/δ: GPI EK versus MVD DADLE; for Kb: 15 min incubation, Ke=[antagonist]/(IC50 ratio-1); for kappa antagonist potency compared with norBNI: GPI, EK
T1 construct: a strip of longitudinal muscle with the myenteric plexus attached was prepared; from tissue; host or cells: guinea pig ileal longitudinal muscle with myenteric plexus (Dunkin-Hartley males)
Description: (§1) Physiological data for guinea pig ileal longitudinal muscle (GPI) was obtained by the methodology of H. P. Rang, “Stimulant Actions of Volatile Anaesthetics on Smooth Muscle,” Brit. […] In vivo assays were done s.c. on mice.
(§2) 1. Guinea Pig Ileal Longitudinal Muscle (GPI). Ilea from guinea pigs were taken approximately 10 cm from the ileocecal junction, and a strip of longitudinal muscle with the myenteric plexus attached was prepared by the method of […] et al., Brit. […] A 1 cm portion of this strip was then mounted between two platinum electrodes placed in a 10 ml organ bath and connected to an isometric transducer; contractions were recorded on a polygraph. Contractions of the ileal strip were initiated by supramaximal rectangular pulses in all preparations (80 V of 0.5 ms duration at a frequency of 0.1 Hz). […] The organ bath was maintained at 36°-37° C. The longitudinal muscle strip was allowed to equilibrate with continuous stimulation for a minimum of 90 min. Cumulative concentration-response curves were determined after drugs were added to the bath in preselected amounts and washed out with buffer after noting their maximum effects.
(§3) Concentration-response curves were obtained in the absence (control) and the presence of the antagonist are expressed as IC50 values. The IC50 ratio represents the IC50 in the presence of the antagonist divided by the control IC50 value in the same tissue. Therefore, a high IC50 ratio represents a correspondingly high degree of antagonism at a particular receptor. This IC50 ratio was employed to calculate the Ke value using the equation Ke=[antagonist]/(IC50 ratio-1). Therefore, a low Ke represents a correspondingly high degree of binding at a particular receptor.

[2] = target: delta opioid receptors (Mus musculus, UniProt P32300); assay: Mouse vas deferens (MVD), antagonism of DADLE (D); assay type: cell-based; design: Both vasa deferentia were dissected out of mice and mounted singly; from tissue; host or cells: mouse vas deferens (Swiss-Webster males) for A3; whole mouse in vivo for A7; details: antagonist 100 nM; agonist DADLE
Description: 2. Mouse Vas Deferens (MVD). This assay was performed according to the description by G. Henderson et al., Brit. […] Both vasa deferentia were dissected out of mice and mounted singly through two platinum ring electrodes in a 10 ml organ bath. The bath contained Krebs bicarbonate solution that was continuously bubbled with 95% O2 and 5% CO2. The organ bath was maintained at 37° C. The tissue was attached to an isometric transducer and stimulated transmurally with rectangular pulses ([…], 1 ms duration, supramaximal voltage). Drugs were added cumulatively to the bath in preselected amounts and washed out after noting their maximum effects.
as §3

[3] = target: mu opioid receptors; details: agonist morphine
Description: as §1, §2, §3

[4] = system: rats that were selectively bred for high voluntary ethanol drinking; details: compared to peptidyl delta-opioid receptor antagonists; cited from earlier work
[5] = target: delta opioid receptor (Rattus norvegicus, UniProt P33533); details: cited from earlier work
[6] = system: rat model of alcoholism; details: cited from earlier work
[7] = recovering alcoholics; cited from earlier work
[8] = antagonist 100 nM, agonist ethylketazocine
[9] = antagonist 100 nM, IC50 agonist + antagonist/IC50 agonist, agonist ethylketazocine
[10] = antagonist 10 nM, agonist ethylketazocine

T1 sequence (P41144 whole entry): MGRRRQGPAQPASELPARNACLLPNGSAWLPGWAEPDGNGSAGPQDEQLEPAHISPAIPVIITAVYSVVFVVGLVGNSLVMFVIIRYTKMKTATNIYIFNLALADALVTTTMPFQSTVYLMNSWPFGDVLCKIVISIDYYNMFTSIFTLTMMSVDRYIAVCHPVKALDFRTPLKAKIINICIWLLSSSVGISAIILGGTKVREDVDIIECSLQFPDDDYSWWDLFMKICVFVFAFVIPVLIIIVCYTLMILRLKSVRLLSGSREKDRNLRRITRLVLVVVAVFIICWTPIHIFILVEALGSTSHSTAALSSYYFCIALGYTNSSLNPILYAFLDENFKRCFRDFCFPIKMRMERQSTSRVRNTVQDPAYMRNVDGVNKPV
delta opioid receptors, sequence (P32300 whole entry): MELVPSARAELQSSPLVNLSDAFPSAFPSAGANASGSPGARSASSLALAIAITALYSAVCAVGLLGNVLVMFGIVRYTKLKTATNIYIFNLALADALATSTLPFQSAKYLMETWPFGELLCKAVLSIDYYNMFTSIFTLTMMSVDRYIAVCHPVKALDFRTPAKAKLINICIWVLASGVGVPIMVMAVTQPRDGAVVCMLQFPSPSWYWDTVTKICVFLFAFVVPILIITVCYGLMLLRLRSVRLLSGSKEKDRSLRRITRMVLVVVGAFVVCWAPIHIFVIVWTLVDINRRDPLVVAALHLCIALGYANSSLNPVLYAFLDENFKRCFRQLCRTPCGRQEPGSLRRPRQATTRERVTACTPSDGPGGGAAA
delta opioid receptor, sequence (P33533 whole entry): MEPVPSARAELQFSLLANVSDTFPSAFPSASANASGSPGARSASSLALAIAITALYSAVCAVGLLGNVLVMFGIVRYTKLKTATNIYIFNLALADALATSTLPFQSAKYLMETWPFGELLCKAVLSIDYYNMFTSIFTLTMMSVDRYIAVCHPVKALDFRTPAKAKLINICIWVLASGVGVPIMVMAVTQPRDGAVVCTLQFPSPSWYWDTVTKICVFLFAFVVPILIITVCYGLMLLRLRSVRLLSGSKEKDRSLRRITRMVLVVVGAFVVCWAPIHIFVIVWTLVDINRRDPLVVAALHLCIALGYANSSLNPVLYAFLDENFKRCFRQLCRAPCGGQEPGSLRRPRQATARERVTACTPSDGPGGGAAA

| Molecule | Selectivity κ/μ [1] | Selectivity κ/δ [1] | Kb [1, 8] [pM] | IC50 ratio, EK (GPI) [1, 9] | IC50 ratio, D (MVD) [2] | IC50 ratio, M (GPI) ([3]; antagonist 100 nM) | Ke, M (GPI) ([3]; antagonist 100 nM) [nM] | kappa antagonist potency compared with norBNI [1] | further results |
| --- | --- | --- | --- | --- | --- | --- | --- | --- | --- |
| 17-(Cyclopropylmethyl)-6,7-dehydro-4,5α-epoxy-3,14-dihydroxy-5′-[(N^2-propanamidino)methyl]-6,7-2′,3′-indolomorphinan Dihydrochloride [Compound 1] | 14 | 69 | 660 | 159 ± 43 | 2.28 ± 0.57 | 11.3 ± 2.6 | 9.71 |  |  |
| 17-(Cyclopropylmethyl)-6,7-dehydro-4,5α-epoxy-3,14-dihydroxy-5′-[(N^2-acetamidino)methyl]-6,7-2′,3′-indolomorphinan Dihydrochloride [Compound 3] | 9 | 44 | 810 | 124 ± 33 | 2.81 ± 0.62 | 13.4 ± 2.2 | 8.04 |  |  |
| Oc1ccc2c3c1O[C@H]1c4[nH]c5ccccc5c4C[C@@]4(O)[C@@H](C2)N(CC2CC2)CC[C@]314 [NTI, naltrindole] |  |  |  |  |  |  |  |  | suppression of ethanol drinking [4]: unexpectedly prolonged suppression of ethanol drinking |
| 17-(Cyclopropylmethyl)-6,7-dehydro-4,5α-epoxy-3,14-dihydroxy-5′-[N-(β-diethylamino)ethylcarboxyamido]-6,7-2′,3′-indolomorphinan Dihydrochloride [Compound 38] | 16 | 329 |  |  | 1.95 ± 0.56 |  |  | more potent | IC50 ratio, EK (GPI) [1, 10]: 31.8 ± 7.7; Ke, EK (GPI) [1, 10]: (10 nm) 0.320 nM; IC50 ratio, M (GPI) ([3]; antagonist 50 nM): 17.1 ± 2.1; Ke, M (GPI) ([3]; antagonist 50 nM): (50 nm) 3.14 nM |
| Oc1ccc2c3c1O[C@H]1c4oc5ccccc5c4C[C@@]4(O)[C@@H](C2)N(CC2CC2)CC[C@]314 [NTB] |  |  |  |  |  |  |  |  | suppression of ethanol drinking [4]: unexpectedly prolonged suppression of ethanol drinking |
| 17-(Cyclopropylmethyl)-6,7-dehydro-4,5α-epoxy-3,14-dihydroxy-5′-[(N^2-butyramidino)methy]-6,7-2′,3′-indolomorphinan Dihydrochloride [Compound 5] | 10 | 62 | 540 | 185 ± 49 | 3.00 ± 0.51 | 18.2 ± 3.9 | 5.84 | more potent |  |
| Oc1ccc2c3c1OC1c4[nH]c5c(c4CC4(O)C(C2)N(CC2CC2)CC[C@]314)C[C@@]1(O)C2Cc3ccc(O)c4c3[C@@]1(CCN2CC1CC1)[C@H]5O4 (some centres unmarked) [norBinaltorphimine, reference compound] |  |  | 560 |  |  |  | 14 |  |  |
| 17-(Cyclopropylmethyl)-6,7-dehydro-4,5α-epoxy-3,14-dihydroxy-51′-[(4-dimethylaminobutyryl)aminomethyl]-6,7-2′,3′-indolomorphinan Dihydrochloride [Compound 43] | 10 | 166 | 505 | 199 ± 62 | 1.20 ± 0.72 | 19.0 ± 6.2 | 5.56 | more potent |  |
| 17-(Cyclopropylmethyl)-6,7-dehydro-4,5α-epoxy-3,14-dihydroxy-5′-[(N^2-3-methylpentanamidino)methyl]-6,7-2′,3′-indolomorphinan Dihydrochloride [Compound 2] | 12 | 310 | 250 | 394 ± 97 | 1.19 ± 0.51 | 31.6 ± 10.7 | 3.27 | more potent |  |
| N,N-diallyl-Tyr-Aib-Aib-Phe-Leu-OH [ICI 174864] |  |  |  |  |  |  |  |  | duration of action ([5]; ethanol drinking): very short duration of action; ethanol drinking ([5]; in vivo): strongly inhibits ethanol drinking |
| 17-(Cyclopropylmethyl)-6,7-dehydro-4,5α-epoxy-3,14-dihydroxy-5′-[N-(β-dimethylamino)ethylcarboxamido]-6,7-2′,3′-indolomorphinan Dihydrochloride [Compound 45] | 6 | 117 | 568 | 177 ± 54 | 1.51 ± 0.42 | 30.3 ± 3.6 | 3.41 |  |  |
| 17-(Cyclopropylmethyl)-6,7-dehydro-4,5α-epoxy-3,14-dihydroxy-5′-[N^2-(N,N-dimethylglycinamidino)methyl]-6,7-2′,3′-indolomorphinan Trihydrochloride [Compound 42] | 55 | 111 | 183 | 547 ± 125 | 4.91 ± 1.38 | 10.0 ± 0.4 | 11.1 | more potent | kappa selectivity compared with norBNI ([1]; GPI/MVD): more selective; potency and selectivity compared with norBNI ([1]; GPI/MVD): more potent and selective; Ke, D (MVD) [2]: 25.6 nM |
| C=CCN1CC[C@]23c4c5ccc(O)c4O[C@H]2C(=O)CC[C@@]3(O)[C@H]1C5 [Naloxone, naloxone] |  |  |  |  |  |  |  |  | ethanol and water intake [6]: suppress ethanol but not water intake |
| 17-(Cyclopropylmethyl)-6,7-dehydro-4,5α-epoxy-3,14-dihydroxy-5 ′-[N^2-(4-dimethylaminobutyrylamidino)methyl]-6,7-2′,3′-indolomorphinan Trihydrochloride [Compound 44] | 61 | 250 | 147 | 679 ± 273 | 2.71 ± 0.44 | 12.1 ± 3.4 | 9.01 | more potent | kappa selectivity compared with norBNI ([1]; GPI/MVD): more selective; potency and selectivity among the compounds ([1]; GPI/MVD): greatest poteny and selectivity; potency and selectivity compared with norBNI ([1]; GPI/MVD): more potent and selective |
| O=C1CC[C@@]2(O)[C@H]3Cc4ccc(O)c5c4[C@@]2(CCN3CC2CC2)[C@H]1O5 [naltrexone] |  |  |  |  |  |  |  |  | incidence of relapse [7]: reduce the incidence of relapse |
